Among the data in US9533991B2, “Inhibitors of Bruton's tyrosine kinase” (PHARMACYCLICS LLC, priority 2014, dated 2017) are IC50 values, retold here.

The subject of one test is lymphoma cell line DOHH2. The test can be described thus: Lymphoma cell assay (anti-IgG stimulated CD69, FACS). The note with it: DOHH-2; DOHH2 cells stimulated with anti-human IgG F(ab')2 10 μg/mL, 14 to 20 hours; read-out: IC50 (50% decrease in CD69 fluorescence on cell surface). It counts as cell-based. The method, then: Cells of lymphoma cell line DOHH2 were seeded in 96-well plates in standard growth media (RPMI+10% fetal calf serum). Compounds were added in an 8-point dilution series ranging from 10 to 0.004 μM with DMSO at 0.1% final concentration in all wells. Cells were then stimulated with a F(ab′)2 fragment of anti-human IgG at 10 μg/mL for 14 to 20 hours before staining for FACS analysis. Cells were incubated with fluorescent-labeled anti-CD69 antibody for 30 minutes on ice in FACS buffer and analyzed on the FACSCanto flowcytometry. The IC50, the concentration that results in a 50% decrease in intensity of fluorescence detected on the cell surface, was calculated using the Prizm software to fit the dose-response curve.

Test [1] deals with T1, Btk (Homo sapiens, UniProt Q06187). The test can be described thus: Btk in vitro inhibitory activity (Method A, B or C). Further details: purified from insect cells as a full-length construct containing a N-terminal 6×-His tag; His6 (N); made in house; host or cells: insect cells (baculovirus, Sf21). The note with it: one of the methods of Example 53a, 53b, 53c. It counts as biochemical. The method, then: Btk kinase activity is determined using a time-resolved fluorescence resonance energy transfer (TR-FRET) methodology. Measurements are performed in a reaction volume of 50 μL using 96-well assay plates. Kinase enzyme, inhibitor, ATP (at the Km for the kinase), and 1 μM peptide substrate (Biotin-AVLESEEELYSSARQ-NH2 (SEQ ID NO: 1)) are incubated in a reaction buffer composed of 20 mM Tris, 50 mM NaCl, MgCl2 (5-25 mM depending on the kinase), MnCl2 (0-10 mM), 1 mM DTT, 0.1 mM EDTA, 0.01% bovine serum albumin, 0.005% Tween-20, and 10% DMSO at pH 7.4 for one hour. The reaction is quenched by the addition of 1.2 equivalents of EDTA (relative to divalent cation) in 25 μL of 1× Lance buffer (Perkin-Elmer). Streptavidin-APC (Perkin-Elmer) and Eu-labeled p-Tyr100 antibody (Perkin-Elmer) in 1× Lance buffer are added in a 25 μL volume to give final concentrations of 100 nM and 2.5 nM, respectively, and the mixture is allowed to incubate for one hour. The TR-FRET signal is measured on a multimode plate reader with an excitation wavelength (λEx) of 330 nm and detection wavelengths (λEm) of 615 and 665 nm. Activity is determined by the ratio of the fluorescence at 665 nm to that at 615 nm. For each compound, enzyme activity is measured at various concentrations of compound. Negative control reactions are performed in the absence of inhibitor in replicates of six, and two no-enzyme controls are used to determine baseline fluorescence levels. Inhibition constants, Ki(app), ware obtained using the program BatchKi (Kuzmic et al. (2000), Anal. Biochem. 286:45-50). IC50s are obtained according to the equation: IC50={Ki(app)/1+[ATP]/Km^ATP)}+[E]total/2;
For all kinases, [ATP]=Km^ATP, [Btk]total=0.5 nM and [Lck]total=6 nM.
Kinase activity is measured in vitro using electrophoretic mobility shift assay. The kinase reactions are assembled in a total volume of 25 μL in 384 well plates. The reactions comprise: BTK enzyme (1 nM, N-terminal His6-tagged, recombinant, full-length, human BTK purified from baculovirus Sf21 insect cell system), inhibitor, ATP (16 μM, the apparent Km for the kinase), fluorescently labeled peptide substrate (1 μM, FAM-GEEPLYWSFPAKKK-NH2 (SEQ ID NO: 2)) in a reaction buffer composed of 100 mM HEPES, pH7.5, 5 mM MgCl2 1 mM DTT, 0.1% bovine serum albumin, 0.01% Triton X-100, and 1% DMSO. The reaction is incubated for one hour and is quenched by the addition of 45 μL of termination buffer (100 mM HEPES, pH7.5, 0.01% Triton X-100, 30 mM EDTA). The terminated reactions are analyzed using 12 channel LabChip® 3000 microfluidic detection instrument (Caliper Life Sciences). The enzymatic phosphorylation of the peptide results in a change in net charge, enabling electrophoretic separation of product from substrate peptide. As substrate and product peptides are separated, two peaks of fluorescence are observed. Change in the relative fluorescence intensity of the substrate and product peaks is the parameter measured, reflecting enzyme activity. In the presence of an inhibitor, the ratio between product and substrate is altered: the signal of the product decreases, while the signal of the substrate increases.
Activity in each sample is determined as the product to sum ratio (PSR):P/(S+P), where P is the peak height of the product peptide and S is the peak height of the substrate peptide. For each compound, enzyme activity is measured at various concentrations (12 concentrations of compound spaced by 3× dilution intervals). Negative control samples (0%−inhibition in the absence of inhibitor) and positive control samples (100%−inhibition, in the presence of 20 mM EDTA) are assembled in replicates of four and are used to calculate %−inhibition values for each inhibitor at each concentration. Percent inhibition (Pinh) is determined using following equation: […]

Test [2] deals with T1, Btk. The test can be described thus: Inhibition of a panel of kinases: Btk. The note with it: kinase panel, Table 2. It counts as biochemical. How it is done: (§1) The degree of inhibition of a panel of kinases is determined using assays similar to the kinase assay described in Example 53.
A further test concerns the target EGFR (Homo sapiens, UniProt P00533). Description: Inhibition of a panel of kinases: EGFR. It counts as biochemical. The note with it: kinase panel, Table 2. How it is done:
as §1

The target of a further test is LCK (Homo sapiens, UniProt P06239). Description: Inhibition of a panel of kinases: LCK. It counts as biochemical. The conditions noted are these: kinase panel, Table 2. How it is done:
as §1

The target in another test is T2, JAK3 (Homo sapiens, UniProt P52333).
T2 sequence (P52333 1-1124): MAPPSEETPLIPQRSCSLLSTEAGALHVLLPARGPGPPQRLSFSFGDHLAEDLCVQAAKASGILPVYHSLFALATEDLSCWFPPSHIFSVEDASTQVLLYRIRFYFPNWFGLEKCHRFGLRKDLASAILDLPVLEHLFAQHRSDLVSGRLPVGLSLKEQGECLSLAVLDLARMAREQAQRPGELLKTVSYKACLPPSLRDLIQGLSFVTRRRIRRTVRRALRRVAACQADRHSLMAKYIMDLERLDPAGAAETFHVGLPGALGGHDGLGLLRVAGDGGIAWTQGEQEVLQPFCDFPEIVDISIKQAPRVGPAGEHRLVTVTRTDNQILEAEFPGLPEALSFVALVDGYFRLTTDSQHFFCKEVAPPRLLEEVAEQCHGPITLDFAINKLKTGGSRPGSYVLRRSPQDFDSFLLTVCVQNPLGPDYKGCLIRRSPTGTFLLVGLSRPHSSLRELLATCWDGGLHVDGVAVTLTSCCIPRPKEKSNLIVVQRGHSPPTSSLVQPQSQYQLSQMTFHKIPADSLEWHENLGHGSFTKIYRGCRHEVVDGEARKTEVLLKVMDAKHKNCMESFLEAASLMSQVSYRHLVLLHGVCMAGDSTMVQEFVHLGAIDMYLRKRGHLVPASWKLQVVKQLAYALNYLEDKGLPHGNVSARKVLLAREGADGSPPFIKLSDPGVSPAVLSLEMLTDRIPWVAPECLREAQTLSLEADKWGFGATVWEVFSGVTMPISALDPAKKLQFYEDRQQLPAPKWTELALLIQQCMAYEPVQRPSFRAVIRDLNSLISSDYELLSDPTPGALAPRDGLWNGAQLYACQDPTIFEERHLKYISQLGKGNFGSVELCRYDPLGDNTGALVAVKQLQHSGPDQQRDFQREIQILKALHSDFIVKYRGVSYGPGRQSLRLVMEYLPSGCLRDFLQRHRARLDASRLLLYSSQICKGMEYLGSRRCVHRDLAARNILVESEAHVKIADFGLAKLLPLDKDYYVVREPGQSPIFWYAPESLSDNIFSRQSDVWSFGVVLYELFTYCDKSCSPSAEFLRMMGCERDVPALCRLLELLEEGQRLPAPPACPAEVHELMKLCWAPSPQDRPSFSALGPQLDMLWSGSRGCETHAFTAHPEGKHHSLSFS
The test can be described thus: Inhibition of a panel of kinases: JAK3. The note with it: kinase panel, Table 2. It counts as biochemical. The method, then: as §1

A value given as a limit tells only on which side of the number the result lay.

T1 sequence (Q06187 whole entry): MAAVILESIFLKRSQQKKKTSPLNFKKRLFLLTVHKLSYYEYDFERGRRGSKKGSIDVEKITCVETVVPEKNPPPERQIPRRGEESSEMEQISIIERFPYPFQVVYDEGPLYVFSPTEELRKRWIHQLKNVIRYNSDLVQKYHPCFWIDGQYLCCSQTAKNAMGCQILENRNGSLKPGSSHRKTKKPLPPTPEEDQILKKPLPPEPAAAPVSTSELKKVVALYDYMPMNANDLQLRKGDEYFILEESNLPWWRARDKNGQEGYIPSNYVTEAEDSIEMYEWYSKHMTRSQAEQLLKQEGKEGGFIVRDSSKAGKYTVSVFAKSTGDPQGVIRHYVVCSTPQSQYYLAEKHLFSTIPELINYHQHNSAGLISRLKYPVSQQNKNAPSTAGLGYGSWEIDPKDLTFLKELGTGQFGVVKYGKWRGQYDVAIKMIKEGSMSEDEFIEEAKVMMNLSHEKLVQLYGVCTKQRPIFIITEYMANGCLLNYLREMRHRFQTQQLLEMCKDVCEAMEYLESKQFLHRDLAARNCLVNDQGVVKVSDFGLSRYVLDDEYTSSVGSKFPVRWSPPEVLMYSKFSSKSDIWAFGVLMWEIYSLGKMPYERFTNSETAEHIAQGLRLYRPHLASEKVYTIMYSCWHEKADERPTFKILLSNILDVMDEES
EGFR, sequence (P00533 25-1210, species assumed): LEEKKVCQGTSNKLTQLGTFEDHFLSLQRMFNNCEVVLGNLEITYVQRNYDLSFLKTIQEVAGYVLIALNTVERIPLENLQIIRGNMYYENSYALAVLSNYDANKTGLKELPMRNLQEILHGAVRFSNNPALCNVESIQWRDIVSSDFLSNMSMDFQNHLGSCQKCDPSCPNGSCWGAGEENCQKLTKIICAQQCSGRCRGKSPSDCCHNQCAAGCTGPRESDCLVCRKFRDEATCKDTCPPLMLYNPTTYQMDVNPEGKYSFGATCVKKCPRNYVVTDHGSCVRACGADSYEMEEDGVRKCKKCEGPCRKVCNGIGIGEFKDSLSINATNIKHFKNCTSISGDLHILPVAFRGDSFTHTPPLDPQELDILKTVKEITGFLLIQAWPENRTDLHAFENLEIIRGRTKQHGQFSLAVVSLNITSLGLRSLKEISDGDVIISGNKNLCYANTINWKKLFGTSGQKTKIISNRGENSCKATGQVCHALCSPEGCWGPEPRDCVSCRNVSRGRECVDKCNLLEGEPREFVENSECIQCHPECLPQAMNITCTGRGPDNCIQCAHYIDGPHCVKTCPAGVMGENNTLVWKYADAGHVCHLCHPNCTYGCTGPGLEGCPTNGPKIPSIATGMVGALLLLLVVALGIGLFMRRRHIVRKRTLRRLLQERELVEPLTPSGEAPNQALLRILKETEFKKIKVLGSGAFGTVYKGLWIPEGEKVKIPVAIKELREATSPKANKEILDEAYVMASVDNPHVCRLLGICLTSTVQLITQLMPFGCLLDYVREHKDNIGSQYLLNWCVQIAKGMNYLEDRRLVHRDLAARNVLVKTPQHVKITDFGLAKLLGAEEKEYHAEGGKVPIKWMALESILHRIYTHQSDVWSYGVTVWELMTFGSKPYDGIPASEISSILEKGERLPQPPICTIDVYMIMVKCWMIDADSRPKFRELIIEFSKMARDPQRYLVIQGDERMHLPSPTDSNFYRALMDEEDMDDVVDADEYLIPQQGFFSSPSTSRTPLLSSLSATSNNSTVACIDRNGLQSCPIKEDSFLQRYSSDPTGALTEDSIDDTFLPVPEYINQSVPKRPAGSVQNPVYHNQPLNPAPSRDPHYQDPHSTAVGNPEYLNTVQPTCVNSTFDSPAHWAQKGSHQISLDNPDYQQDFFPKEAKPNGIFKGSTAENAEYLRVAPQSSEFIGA
LCK, sequence (P06239 whole entry, species assumed): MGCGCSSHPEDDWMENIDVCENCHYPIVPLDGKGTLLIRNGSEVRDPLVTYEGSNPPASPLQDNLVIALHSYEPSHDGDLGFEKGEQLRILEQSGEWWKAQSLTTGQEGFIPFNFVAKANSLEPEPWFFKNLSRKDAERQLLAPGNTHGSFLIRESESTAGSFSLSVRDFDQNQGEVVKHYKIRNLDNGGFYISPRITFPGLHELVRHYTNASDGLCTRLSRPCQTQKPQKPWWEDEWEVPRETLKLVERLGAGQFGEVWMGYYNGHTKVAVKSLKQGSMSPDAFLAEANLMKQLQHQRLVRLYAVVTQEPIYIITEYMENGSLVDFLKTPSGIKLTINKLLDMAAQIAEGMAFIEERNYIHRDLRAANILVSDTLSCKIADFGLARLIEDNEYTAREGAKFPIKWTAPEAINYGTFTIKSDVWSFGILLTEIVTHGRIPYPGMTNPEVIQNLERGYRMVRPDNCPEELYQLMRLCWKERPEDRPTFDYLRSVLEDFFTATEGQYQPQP

Consider `C=CC(=O)N1CC[C@@H](n2nc(-c3ccc(C(=O)Nc4cc(C(C)C)ccn4)cc3)c3c(N)ncnc32)C1` [Compound ID 23, (R)-4-(1-(1-acryloylpyrrolidin-3-yl)-4-amino-1H-pyrazolo[3,4-d]pyrimidin-3-yl)-N-(4-isopropylpyridin-2-yl)benzamide], for which the IC50 in the test on lymphoma cell line DOHH2 is less than 5 nM; against Btk [1], not above 10 nM.
`C=CC(=O)N1CCC[C@@H](n2nc(-c3ccc(C(=O)Nc4cc(C)ccn4)cc3)c3c(N)ncnc32)C1` [Compound ID 26, (R)-4-(1-(1-acryloylpiperidin-3-yl)-4-amino-1H-pyrazolo[3,4-d]pyrimidin-3-yl)-N-(4-methylpyridin-2-yl)benzamide]: the values for the IC50 in the test with lymphoma cell line DOHH2 and against Btk [1] were less than 5 nM and not above 10 nM, respectively.
With `C=CC(=O)N1CCC[C@@H](n2nc(-c3ccc(C(=O)Nc4cc(CCC)ccn4)cc3)c3c(N)ncnc32)C1` [Compound ID 31, (R)-4-(1-(1-acryloylpiperidin-3-yl)-4-amino-1H-pyrazolo[3,4-d]pyrimidin-3-yl)-N-(4-propylpyridin-2-yl)benzamide], the results for the IC50 in the test on lymphoma cell line DOHH2 and at Btk [1] were less than 5 nM and not above 10 nM, respectively.
On to `C=CC(=O)N1CC[C@@H](n2nc(-c3ccc(C(=O)Nc4cc(C)ccn4)cc3)c3c(N)ncnc32)C1` [Compound ID 20, (R)-4-(1-(1-acryloylpyrrolidin-3-yl)-4-amino-1H-pyrazolo[3,4-d]pyrimidin-3-yl)-N-(4-methylpyridin-2-yl)benzamide], for which the IC50 against Btk [2] was not above 10 nM; against EGFR, not above 10 nM; at LCK, 10 to 100 nM; in the test with lymphoma cell line DOHH2, less than 5 nM; at Btk [1], not above 10 nM.
Take `CC#CC(=O)N1CC[C@@H](n2nc(-c3ccc(C(=O)Nc4ccccn4)cc3)c3c(N)ncnc32)C1` [Compound ID 3, (R)-4-(4-amino-1-(1-but-2-ynoylpyrrolidin-3-yl)-1H-pyrazolo[3,4-d]pyrimidin-3-yl)-N-(pyridin-2-yl)benzamide]: the IC50 against Btk [2] is not above 10 nM; against EGFR it was 100 to 1000 nM; against LCK, 10 to 100 nM; at JAK3, more than 1000 nM; against Btk [1], not above 10 nM.
In the case of `C=CC(=O)N1CC[C@@H](n2nc(-c3ccc(C(=O)Nc4cc(CCC)ccn4)cc3)c3c(N)ncnc32)C1` [Compound ID 30, (R)-4-(1-(1-acryloylpyrrolidin-3-yl)-4-amino-1H-pyrazolo[3,4-d]pyrimidin-3-yl)-N-(4-propylpyridin-2-yl)benzamide], the IC50 in the test with lymphoma cell line DOHH2 was less than 5 nM; at Btk [1], not above 10 nM.
Turning to `C=CC(=O)N1CC[C@@H](n2nc(-c3ccc(C(=O)Nc4cc(C(F)(F)F)ccn4)cc3)c3c(N)ncnc32)C1` [Compound ID 21, (R)-4-(1-(1-acryloylpyrrolidin-3-yl)-4-amino-1H-pyrazolo[3,4-d]pyrimidin-3-yl)-N-(4-(trifluoromethyl)pyridin-2-yl)benzamide], the IC50 was not above 10 nM against Btk [2]; not above 10 nM on EGFR; 10 to 100 nM against LCK; less than 5 nM in the test on lymphoma cell line DOHH2; not above 10 nM at Btk [1].
For the compound `CC#CC(=O)N1CCC[C@@H](n2nc(-c3ccc(C(=O)Nc4cc(C(C)C)ccn4)cc3)c3c(N)ncnc32)C1` [Compound ID 6, (R)-4-(4-amino-1-(1-but-2-ynoylpiperidin-3-yl)-1H-pyrazolo[3,4-d]pyrimidin-3-yl)-N-(4-isopropylpyridin-2-yl)benzamide], the 50% inhibitory concentration (IC50) at Btk [2] is not above 10 nM; against EGFR, more than 1000 nM; against LCK, 100 to 1000 nM; at JAK3, more than 1000 nM; against Btk [1] it was not above 10 nM.
For `C=CC(=O)N1CCC[C@@H](n2nc(-c3ccc(C(=O)Nc4cc(C(F)(F)F)ccn4)cc3)c3c(N)ncnc32)C1` [Compound ID 27, (R)-4-(1-(1-acryloylpiperidin-3-yl)-4-amino-1H-pyrazolo[3,4-d]pyrimidin-3-yl)-N-(4-(trifluoromethyl)pyridin-2-yl)benzamide], the IC50 was less than 5 nM with lymphoma cell line DOHH2 and not above 10 nM at Btk [1].
